# Marks after values point to notes of the source that are not given here.
# Experiments:
# [1] = system: human cervical carcinoma cell line Hela; experiment: MTT cell growth inhibition, Hela; type: cell-based; conditions: Homo sapiens, MTT assay, 72 h, read-out: IC50, growth of tumor cell line
# Description: (§3) Experimental method: Cell lines (human non-small-cell lung cancer cell line A549, human colon cancer cell line LOVO, human nasopharyngeal carcinoma cell line CNE-2, human liver cancer cell line HepG2, human cervical carcinoma cell line Hela, human breast cancer cell lines MCF-7 and MDA-MB-231, human gastric carcinoma cell line NCI-N87, human prostatic cancer cell lines PC-3 and DU145, human leukemia cell line K562, human melanoma cell line A375, human neuroblastoma cell line SH-SY5H, human promyelocytic leukemia cell line HL-60, 5-FU-resistant human hepatocellular carcinoma cell line BEL-7402/5-Fu, doxorubicin-resistant hepatocellular carcinoma cell line HepG2/ADM, doxorubicin-resistant human breast cancer cell lines MCF-7/ADR) at logarithmic phase were resuspended in RPMI 1640 medium (containing 10% fetal bovine serum, 100 U/mL penicillin-streptomycin). Then, 100 μL of cells (cell concentration was 5×10^5/mL) were seeded into 96 wells plate. After 24 h incubation at 37° C. with 5% CO2, tested compounds were added (the control group without compound) for an additional 72 h incubation. After that, 30 μL of MTT [3-(4,5-Dimethylthiazol-2-yl)-2,5-diphenyltetrazolium bromide] solution (5 mg/mL) was added into each well and incubated for another 4 h at 37° C. and then the formazan crystals were solubilized with 100 μL DMSO. Finally, absorbance of each well was determined at 570 nm by a microplate reader (Thermo).
# (§4) The concentration required to inhibit cell growth by 50% (IC50) was calculated from survival curves.
# [2] = system: human liver cancer cell line HepG2; experiment: MTT cell growth inhibition, HepG2; type: cell-based; conditions: Homo sapiens; HepG2, MTT assay, 72 h; read-out: IC50, growth of tumor cell line
# Description: as §3, §4
# [3] = system: human melanoma cell line A375; experiment: MTT cell growth inhibition, A375; type: cell-based; conditions: Homo sapiens, A-375; A375, MTT assay, 72 h; read-out: IC50, growth of tumor cell line
# Description: as §3, §4
# [4] = system: doxorubicin-resistant human breast cancer cell lines MCF-7/ADR; experiment: MTT cell growth inhibition, MCF-7/ADR; type: cell-based; conditions: Homo sapiens, NCI/ADR-RES, MTT assay, 72 h, read-out: IC50, growth of tumor cell line
# Description: as §3, §4
# [5] = system: human breast cancer cell line MDA-MB-231; experiment: MTT cell growth inhibition, MDA-MB-231; type: cell-based; conditions: Homo sapiens; MDA-MB-231, MTT assay, 72 h; read-out: IC50, growth of tumor cell line
# Description: as §3, §4
# [6] = system: doxorubicin-resistant hepatocellular carcinoma cell line HepG2/ADM; experiment: MTT cell growth inhibition, HepG2/ADM; type: cell-based, human; conditions: Homo sapiens, MTT assay, 72 h, read-out: IC50, growth of tumor cell line
# Description: as §3, §4
# [7] = system: human prostatic cancer cell line DU145; experiment: MTT cell growth inhibition, DU-145; type: cell-based; conditions: Homo sapiens; DU-145, MTT assay, 72 h; read-out: IC50, growth of tumor cell line
# [8] = system: human non-small-cell lung cancer cell line A549; experiment: MTT cell growth inhibition, A549; type: cell-based; conditions: Homo sapiens; A549, MTT assay, 72 h; read-out: IC50, growth of tumor cell line
# Description: as §3, §4
# [9] = system: MDA-MB-231 xenografts; experiment: MDA-MB-231 xenografts in nude mice; type: in vivo, BALB/nu/nu mice; conditions: MDA-MB-231 xenograft nude mice; for Anti-tumor rate (%) / Body weight (g) Post-dose / Tumor weight: 1 mg/kg i.p. every two days, 8 administrations; for Body weight (g) Pre-dose: before dosing
# Description: (§1) Experimental method: The MDA-MB-231 cells at logarithmic phase were digested and washed twice with PBS. Then, 100 μL cells (1×10^7) were inoculated subcutaneously on the backs of female BALB/nu/nu mice. After tumors grew to 70˜100 mm^3, the mice were divided randomly into saline group (control group), vinca alkaloids groups (VLB, CCRB, CCFN, CCXJ) and vinca alkaloid derivatives groups (JJ-CCJ, BX-CCJ, JJ-CCRB, BX-CCRB, JJ-CCFN, BX-CCFN, JJ-CCXJ and BX-CCXJ), with six mice per group. 1 mg/kg drugs were injected intraperitoneally every two days, meanwhile body weight and tumor sizes were measured. Experiment was ended after 8 times of drug administration, then tumor and organs were stripped. Tumor volumes were measured using the following formula: V=½(ab^2), whereas a refers to the longest diameter and b is the shortest diameter.
# [10] = system: human gastric carcinoma cell line NCI-N87; experiment: MTT cell growth inhibition, NCI-N87; type: cell-based; conditions: Homo sapiens; NCI-N87, MTT assay, 72 h; read-out: IC50, growth of tumor cell line
# Description: as §3, §4
# [11] = system: human prostatic cancer cell line PC-3; experiment: MTT cell growth inhibition, PC-3; type: cell-based; conditions: Homo sapiens; PC-3, MTT assay, 72 h; read-out: IC50, growth of tumor cell line
# Description: as §3, §4
# [12] = system: human breast cancer cell line MCF-7; experiment: MTT cell growth inhibition, MCF-7; type: cell-based; conditions: Homo sapiens, MCF7; MCF-7, MTT assay, 72 h; read-out: IC50, growth of tumor cell line
# [13] = system: LOVO xenografts; experiment: LOVO xenografts in nude mice; type: in vivo; conditions: LOVO xenograft nude mice; for Anti-tumor rate (%) / Body weight (g) Post-dose / Tumor weight: 1 mg/kg; for Body weight (g) Pre-dose: before dosing
# Description: as §1
# (§2) Tumor xenograft models of HepG2, LOVO, K562 and HL-60 cell lines were performed as the method described above.
# [14] = system: human neuroblastoma cell line SH-SY5H; experiment: MTT cell growth inhibition, SH-SY5H; type: cell-based; conditions: Homo sapiens, Neuroblastoma cell, MTT assay, 72 h, read-out: IC50, growth of tumor cell line
# Description: as §3, §4
# [15] = system: HL-60 xenografts; experiment: HL-60 xenografts in nude mice; type: in vivo; conditions: HL-60 xenograft nude mice; for Anti-tumor rate (%) / Body weight (g) Post-dose / Tumor weight: 1 mg/kg; for Body weight (g) Pre-dose: before dosing
# Description: as §1, §2
# [16] = system: human promyelocytic leukemia cell line HL-60; experiment: MTT cell growth inhibition, HL-60; type: cell-based; conditions: Homo sapiens; HL-60, MTT assay, 72 h; read-out: IC50, growth of tumor cell line
# Description: as §3, §4
# [17] = system: human leukemia cell line K562; experiment: MTT cell growth inhibition, K562; type: cell-based; conditions: Homo sapiens; K562, MTT assay, 72 h; read-out: IC50, growth of tumor cell line
# Description: as §3, §4
# [18] = system: K562 xenografts; experiment: K562 xenografts in nude mice; type: in vivo; conditions: K562 xenograft nude mice; for Anti-tumor rate (%) / Body weight (g) Post-dose / Tumor weight: 1 mg/kg; for Body weight (g) Pre-dose: before dosing
# Description: as §1, §2
# [19] = system: HepG2 xenografts; experiment: HepG2 xenografts in nude mice; type: in vivo; conditions: HepG2 xenograft nude mice; for Anti-tumor rate (%) / Body weight (g) Post-dose / Tumor weight: 1 mg/kg; for Body weight (g) Pre-dose: before dosing
# Description: as §1, §2
# [20] = system: human nasopharyngeal carcinoma cell line CNE-2; experiment: MTT cell growth inhibition, CNE-2; type: cell-based; conditions: Homo sapiens; CNE-2, MTT assay, 72 h; read-out: IC50, growth of tumor cell line
# [21] = system: 5-FU-resistant human hepatocellular carcinoma cell line BEL-7402/5-Fu; experiment: MTT cell growth inhibition, BEL-7402/5-Fu; type: cell-based; conditions: Homo sapiens, Bel7402/5-FU, MTT assay, 72 h, read-out: IC50, growth of tumor cell line
# Description: as §3, §4
# [22] = system: human colon cancer cell line LOVO; experiment: MTT cell growth inhibition, LOVO; type: cell-based; conditions: Homo sapiens; LOVO (FAPα positive), MTT assay, 72 h; read-out: IC50, growth of tumor cell line
# Description: as §3, §4
# [23] = MTT cytotoxicity on normal cells, HUVEC; conditions: human, HUVEC (human umbilical vein endothelial cells)
# Description: Then, 100 μL of cells (cell concentration was 5×10^5/mL) were seeded into 96 wells plate. After 24 h incubation at 37° C. with 5% CO2, tested compounds were added (the control group without compound) for an additional 72 h incubation. After that, 30 μL of MTT [3-(4,5-Dimethylthiazol-2-yl)-2,5-diphenyltetrazolium bromide] solution (5 mg/mL) was added into each well and incubated for another 4 h at 37° C. and then the formazan crystals were solubilized with 100 μL DMSO. Finally, absorbance of each well was determined at 570 nm by a microplate reader (Thermo).
# The standard curve was drew with compound concentrations as the abscissa and cell growth inhibition rates as the ordinate. The concentration required to inhibit cell growth by 50% (IC50) was calculated from survival curves.
# Experimental method: In vitro cytotoxicities of vinca alkaloids, hydrazinolyzed vinca alkaloids and vinca alkaloid dipeptide derivatives on human normal liver cells LO2 and human umbilical vein endothelial cells HUVEC were detected according to the method of Example 2.
# [24] = MTT cytotoxicity on normal cells, LO2; conditions: human, LO2 cells (human normal liver cells)
SMILES,IC50 [1] [nM],IC50 [2] [nM],IC50 [3] [nM],IC50 [4] [nM],IC50 [5] [nM],IC50 [6] [nM],IC50 [7] [nM],IC50 [8] [nM],Anti-tumor rate (%) [9],Body weight (g) Post-dose [9] [g],Tumor weight [9] [g],IC50 [10] [nM],IC50 [11] [nM],IC50 [12] [nM],IC50 [14] [nM],IC50 [16] [nM],IC50 [17] [nM],IC50 [20] [nM],IC50 [21] [nM],IC50 [22] [nM],also measured
"CC[C@]12C=CCN3CC[C@@]4(c5cc([C@@]6(C(=O)OC)C[C@@H]7C[C@@H](C(C)(F)F)CN(Cc8c6[nH]c6ccccc86)C7)c(OC)cc5N(C)[C@H]4[C@@](O)(C(=O)NN)[C@@H]1O)[C@@H]32 [JJ-CCFN, hydrazinolyzed vinflunine]",132 ± 6.67,103 ± 6.37,132 ± 9.51,713 ± 25.6,333 ± 12.5,277 ± 9.67,90.8 ± 5.45,206 ± 6.79,75.10** %,16.3 ± 0.7,0.65 ± 0.13,133 ± 6.7,98.3 ± 3.19,304 ± 9.44,159 ± 20.4,198 ± 19.5,55.9 ± 7.59,198 ± 7.71,166 ± 5.77,313 ± 7.64,Body weight (g) Pre-dose [9]: 19.7 ± 2.1 g; Anti-tumor rate (%) [13]: 76.31** %; Body weight (g) Post-dose [13]: 18.9 ± 2.1 g; Tumor weight [13]: 0.68 ± 0.13 g; Body weight (g) Pre-dose [13]: 22.7 ± 1.5 g; Anti-tumor rate (%) [15]: 60.10** %; Body weight (g) Post-dose [15]: 17.3 ± 0.1 g; Tumor weight [15]: 0.83 ± 0.13 g; Body weight (g) Pre-dose [15]: 19.2 ± 1.9 g; Anti-tumor rate (%) [18]: 57.74** %; Body weight (g) Post-dose [18]: 17.4 ± 0.9 g; Tumor weight [18]: 0.71 ± 0.21 g; Body weight (g) Pre-dose [18]: 21.5 ± 2.1 g; Anti-tumor rate (%) [19]: 75.69** %; Body weight (g) Post-dose [19]: 16.5 ± 0.4 g; Tumor weight [19]: 0.62 ± 0.19 g; Body weight (g) Pre-dose [19]: 22.3 ± 1.7 g
"CCC1=C[C@@H]2CN(C1)Cc1c([nH]c3ccccc13)[C@@](C(=O)OC)(c1cc3c(cc1OC)N(C)[C@H]1[C@@](O)(C(=O)NN)[C@H](O)[C@]4(CC)C=CCN5CC[C@]31[C@@H]54)C2 [JJ-CCRB, hydrazinolyzed vinorelbine]",61.3 ± 3.12,89.31 ± 0.71,20.4 ± 2.85,–,101 ± 7.65,182 ± 4.38,60.4 ± 7.01,73.1 ± 2.36,77.39** %,16.7 ± 1.4,0.59 ± 0.18,89 ± 3.34,65.9 ± 3.05,122 ± 5.75,32.9 ± 3.27,46.8 ± 5.41,49.7 ± 3.39,100 ± 5.9,143 ± 8.57,121 ± 10.3,Body weight (g) Pre-dose [9]: 21.0 ± 2.7 g; Anti-tumor rate (%) [13]: 69.69** %; Body weight (g) Post-dose [13]: 16.4 ± 0.7 g; Tumor weight [13]: 0.87 ± 0.16 g; Body weight (g) Pre-dose [13]: 23.2 ± 2.1 g; Anti-tumor rate (%) [15]: 65.38** %; Body weight (g) Post-dose [15]: 17.1 ± 0.3 g; Tumor weight [15]: 0.72 ± 0.21 g; Body weight (g) Pre-dose [15]: 19.5 ± 1.3 g; Anti-tumor rate (%) [18]: 59.52** %; Body weight (g) Post-dose [18]: 18.2 ± 0.5 g; Tumor weight [18]: 0.68 ± 0.20 g; Body weight (g) Pre-dose [18]: 21.8 ± 1.4 g; Anti-tumor rate (%) [19]: 75.29** %; Body weight (g) Post-dose [19]: 17.0 ± 0.8 g; Tumor weight [19]: 0.63 ± 0.29 g; Body weight (g) Pre-dose [19]: 21.9 ± 1.6 g
"CCC1=C[C@@H]2CN(C1)Cc1c([nH]c3ccccc13)[C@@](C(=O)OC)(c1cc3c(cc1OC)N(C)[C@H]1[C@@](O)(C(=O)OC)[C@H](OC(C)=O)[C@]4(CC)C=CCN5CC[C@]31[C@@H]54)C2 [Vinorelbine, reference compound]",11.4 ± 1.04,8.34 ± 0.53,5.64 ± 0.95,–,39.7 ± 5.79,24.4 ± 3.82,19.9 ± 0.57,14.5 ± 1.07,–,–,–,35.8 ± 6.57,23.7 ± 4.31,49.5 ± 2.01,4.78 ± 0.84,8.68 ± 1.35,12.2 ± 0.54,9.03 ± 0.35,36.1 ± 4.78,7.86 ± 0.16,IC50 at 72 h [23]: 1.13 ± 0.56 nM; IC50 at 72 h [24]: 0.97 ± 0.08 nM
"CC[C@]12C=CCN3CC[C@@]4(c5cc([C@@]6(C(=O)OC)C[C@@H]7C[C@@H](C(C)(F)F)CN(Cc8c6[nH]c6ccccc86)C7)c(OC)cc5N(C)[C@H]4[C@@](O)(C(=O)OC)[C@@H]1OC(C)=O)[C@@H]32 [Vinflunine, reference compound]",56.7 ± 4.47,32.1 ± 2.17,39.8 ± 5.29,154 ± 3.95,61.3 ± 7.44,67.1 ± 4.39,22.3 ± 1.67,137 ± 4.1,–,–,–,57.5 ± 3.95,31.1 ± 5.34,77 ± 2.74,52.4 ± 6.81,41.8 ± 6.85,19.3 ± 2.48,67.4 ± 3.42,45.7 ± 3.98,146 ± 7.21,–
"CC[C@]1(O)C[C@@H]2CN(CCc3c([nH]c4ccccc34)[C@@](C(=O)OC)(c3cc4c(cc3OC)N[C@H]3[C@@](O)(C(=O)NN)[C@H](O)[C@]5(CC)C=CCN6CC[C@]43[C@@H]65)C2)C1 [JJ-CCXJ, hydrazinolyzed vincristine]",23.6 ± 2.97,12.3 ± 1.96,15.6 ± 2.38,63.2 ± 7.74,7.37 ± 1.18,44.9 ± 3.67,18.4 ± 3.67,4.34 ± 0.42,75.86** %,17.3 ± 1.2,0.63 ± 0.15,10.7 ± 1.78,27.1 ± 2.18,26.9 ± 4.38,18.7 ± 2.54,32.5 ± 3.51,12.1 ± 1.67,8.37 ± 2.7,106 ± 5.87,24.3 ± 1.09,Body weight (g) Pre-dose [9]: 21.1 ± 2.5 g; Anti-tumor rate (%) [13]: 73.52** %; Body weight (g) Post-dose [13]: 17.5 ± 1.3 g; Tumor weight [13]: 0.76 ± 0.16 g; Body weight (g) Pre-dose [13]: 22.9 ± 2.3 g; Anti-tumor rate (%) [15]: 59.62** %; Body weight (g) Post-dose [15]: 16.3 ± 0.6 g; Tumor weight [15]: 0.84 ± 0.13 g; Body weight (g) Pre-dose [15]: 19.7 ± 1.5 g; Anti-tumor rate (%) [18]: 60.12** %; Body weight (g) Post-dose [18]: 17.1 ± 0.3 g; Tumor weight [18]: 0.67 ± 0.22 g; Body weight (g) Pre-dose [18]: 22.4 ± 1.7 g; Anti-tumor rate (%) [19]: 79.21** %; Body weight (g) Post-dose [19]: 17.8 ± 0.9 g; Tumor weight [19]: 0.53 ± 0.12 g; Body weight (g) Pre-dose [19]: 22.0 ± 2.1 g
